Laboratory results as given in patent US20040142993A1, “Inhibitors of HCV NS5B polymerase” (priority 2002, published 2004).
Counter-ions that a name gives are not always drawn.

Target: HCV NS5b RNA dependent RNA polymerase (Hepatitis C virus genotype 1a, UniProt P27958)
Assay: Inhibition of HCV NS5b RNA dependent RNA polymerase activity (incorporation of 3H labeled GTP, scintillation proximity)
Assay type: biochemical
Conditions: HCV NS5b polymerase assay; read-out: concentration for 50% inhibition (inhibitory activity, Table 2)
Description: Compounds of the present invention are evaluated for inhibition of HCV NS5b RNA dependent RNA polymerase activity in assays comprised of a suitable buffer (e.g. 20 mM Tris-HCl pH 7.6), primed or unprimed RNA templates, GTP, ATP, CTP, and UTP, MnCl2 or MgCl2, and reducing agent such as 10 mM dithiothreitol or 2-mercaptoethanol. The assay buffer may contain salts such as ammonium acetate, KCl, or NaCl, and nonionic or zwitterionic detergents such as Tween or CHAPS. The incorporation of nucleotides into the complementary RNA strand may be monitored by the incorporation of radiolabeled NTP (e.g. ^3H labeled GTP). Suitable RNA templates for de novo initiation in the presence of 20-50 μM GTP or ATP are the homopolymers poly rC and poly rU, respectively. Heteropolymer RNA templates with 1-3 cytidine (C) bases or 1-3 uridine (U) bases at the 3′ terminus of the template may also be used for de novo initiation. Primed RNA templates such as poly rC primed with oligo rG or oligo dG, and poly rA primed with oligo rU may also be used to detect polymerase activity. The primers may be any length greater than 10 bases. A biotin residue may be added to the 5′ end of the template or the 5′ end of the primer to capture the template and the newly synthesized, complementary strand on avidin coated spheres. One embodiment of this technology consists of a mixture of NS5b polymerase, a poly rC RNA template primed with 5′ biotinylated oligo rG, 20 mM Tris HCl pH 7.6, 100 mM ammonium acetate, 10 mM dithiothreitol, 2 mM CHAPS, 1 mM MgCl2, and 150-200 nM ^3H labeled GTP. Test compounds (inhibitors) may be incorporated in the reaction mixture with up to 10% DMSO. The reaction is run for various times (1-180 minutes) at 22-37° C., and stopped by the addition of 10-140 mM EDTA. Scintillation Proximity Assay avidin-coated beads (Amersham Pharmacia Biotech) are added to capture the ds RNA product; or the reaction mixtures may be transferred to avidin coated Flash Plates (Perkin Elmer Life Sciences). The incorporation of radiolabeled GTP into the complementary strand is measured in 96, 384, or 1536 well plates in scintillation counters such as the Wallac Microbeta and Packard TopCount.

HCV NS5b RNA dependent RNA polymerase, sequence (P27958 2421-3011): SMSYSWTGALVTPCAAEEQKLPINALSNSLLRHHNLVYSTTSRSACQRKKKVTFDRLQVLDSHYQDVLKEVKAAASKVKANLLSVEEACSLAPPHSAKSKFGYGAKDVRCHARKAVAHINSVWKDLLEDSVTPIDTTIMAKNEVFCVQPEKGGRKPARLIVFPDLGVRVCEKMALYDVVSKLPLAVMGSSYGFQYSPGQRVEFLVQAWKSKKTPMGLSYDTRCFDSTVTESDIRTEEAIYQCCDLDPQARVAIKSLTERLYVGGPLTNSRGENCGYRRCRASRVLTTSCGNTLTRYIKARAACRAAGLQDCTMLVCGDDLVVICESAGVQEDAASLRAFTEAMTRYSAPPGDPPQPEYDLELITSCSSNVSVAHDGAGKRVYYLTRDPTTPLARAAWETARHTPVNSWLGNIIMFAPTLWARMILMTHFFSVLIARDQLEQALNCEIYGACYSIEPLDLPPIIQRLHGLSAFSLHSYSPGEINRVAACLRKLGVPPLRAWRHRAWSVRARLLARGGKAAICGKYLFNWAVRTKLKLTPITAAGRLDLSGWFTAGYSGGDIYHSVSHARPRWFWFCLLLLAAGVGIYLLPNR

“5-(aminomethyl)-2-{[2-[(2-carboxyphenyl)thio]-5-(trifluoromethyl)phenyl]amino}benzoic acid [xii]” and N#Cc1ccc(Nc2ccccc2Nc2ccccc2C(=O)O)c(C(=O)O)c1 [li, 2-({2-[(2-carboxyphenyl)amino]phenyl}amino)-5-cyanobenzoic acid] fall in the same range of IC50: 1 to 20 µM for the first, 1 to 20 µM for the second.

First: O=C(O)c1ccccc1Nc1ccc(F)cc1Nc1ccccc1C(=O)O [lii, 2-({2-[(2-carboxyphenyl)amino]-4-fluorophenyl}amino)benzoic acid]
Second: O=C(O)c1ccccc1Nc1ccccc1Nc1cc(F)ccc1C(=O)O [lix, 2-({2-[(2-carboxyphenyl)amino]phenyl}amino)-4-fluorobenzoic acid]
The IC50 of the first is lower: 1 to 20 µM for the first, greater than 20 µM for the second. The first is the more potent here.

c1ccc(Nc2ccccc2-c2nnn[nH]2)c(Nc2ccccc2-c2nnn[nH]2)c1 [lv, N,N′-bis[2-(1H-tetrazol-5-yl)phenyl]benzene-1,2-diamine, disodium salt] and O=C(O)c1ccccc1Nc1ccccc1Nc1cc(F)c(F)cc1C(=O)O [lvii, 2-({2-[(2-carboxyphenyl)amino]phenyl}amino)-4,5-difluorobenzoic acid] fall in the same range of IC50: 1 to 20 µM for the first, 1 to 20 µM for the second.

O=C(O)c1ccccc1Nc1ccccc1Nc1ccccc1C(=O)O [lviii] and COc1ccc(Nc2ccccc2Nc2ccccc2C(=O)O)c(C(=O)O)c1 [lx, 2-({2-[(2-carboxyphenyl)amino]phenyl}amino)-5-methoxybenzoic acid] cannot be ordered by IC50: greater than 20 µM for the first, greater than 20 µM for the second.

O=C(O)c1ccccc1Nc1cc(C(F)(F)F)ccc1Oc1ccccc1C(=O)O [lxv, 2-{[2-(2-carboxyphenoxy)-5-(trifluoromethyl)phenyl]amino}benzoic acid] and Cc1ccc(Nc2ccccc2C(=O)O)c(Nc2ccccc2C(=O)O)c1 [xl, 2-({2-[(2-carboxyphenyl)amino]-4-methylphenyl}amino)benzoic acid] fall in the same range of IC50: 1 to 20 µM for the first, 1 to 20 µM for the second.

First: N#Cc1ccc(Nc2ccc(C(F)(F)F)cc2Nc2ccccc2C(=O)O)c(C(=O)O)c1 [xvi, 2-{[2-[(2-carboxyphenyl)amino]-4-(trifluoromethyl)phenyl]amino}-5-cyanobenzoic acid]
Second: N[C@@H](Cc1ccccc1)C(=O)NCc1ccc(Nc2cc(C(F)(F)F)ccc2Nc2ccccc2C(=O)O)c(C(=O)O)c1 [xviii, N-(3-carboxy-4-{[2-[(2-carboxyphenyl)amino]-5-(trifluoromethyl)phenyl]amino}benzyl)-L-phenylalaninamide chloride]
The IC50 of the first is lower: 1 to 20 µM for the first, greater than 20 µM for the second. The first is the more potent here.

Going from NCc1ccc(Nc2ccc(C(F)(F)F)cc2Nc2ccccc2C(=O)O)c(C(=O)O)c1 [xxiv, 5-(aminomethyl)-2-{[2-[(2-carboxyphenyl)amino]-4-(trifluoromethyl)phenyl]amino}benzoic acid hydrochloride] to NCc1ccc(Nc2cc(C(F)(F)F)ccc2Oc2ccccc2C(=O)O)c(C(=O)O)c1 [xxv, 5-(aminomethyl)-2-{[2-(2-carboxyphenoxy)-5-(trifluoromethyl)phenyl]amino}benzoic acid hydrochloride], the IC50 rises from less than 1 µM to greater than 20 µM.

Compared with NCCc1ccc(Nc2ccc(C(F)(F)F)cc2Nc2ccccc2C(=O)O)c(C(=O)O)c1 [xxvii, 5-(2-aminoethyl)-2-{[2-[(2-carboxyphenyl)amino]-4-(trifluoromethyl)phenyl]amino}benzoic acid hydrochloride], O=C(O)c1ccccc1Nc1ccc(C(F)(F)F)cc1Nc1ccc(CN2CCCC2)cc1C(=O)O [xxx, 2-{[2-[(2-carboxyphenyl)amino]-5-(trifluoromethyl)phenyl]amino}-5-(pyrrolidin-1-ylmethyl)benzoic acid] is higher in IC50: less than 1 µM for the first, 1 to 20 µM for the second. The first is the more potent here.

O=C(O)c1ccccc1Nc1ccc(C(F)(F)F)cc1Nc1ccccc1C(=O)O [xxxi, 2-{[2-[(2-carboxyphenyl)amino]-4-(trifluoromethyl)phenyl]amino}benzoic acid] and NCCc1ccc(Nc2cc(C(F)(F)F)ccc2Nc2ccccc2C(=O)O)c(C(=O)O)c1 [xxxviii, 5-(2-aminoethyl)-2-{[2-[(2-carboxyphenyl)amino]-5-(trifluoromethyl)phenyl]amino}benzoic acid hydrochloride] cannot be ordered by IC50: less than 1 µM for the first, less than 1 µM for the second.
